{"source": "the SangsterLogP compilation", "data": [{"assay": "method code RP-HPLC, from DOI: 10.1021/jm030408h, PMID: 14971904", "values": [{"smiles": "CCCCCc1cc(O)c2c(c1)OC(C)(C)[C@@H]1CCC(C)=C[C@@H]21", "logP": 6.99}, {"smiles": "C[N+](C)([O-])CCC=C1c2ccccc2CCc2ccccc21", "logP": 3.14}, {"smiles": "C#CCCCC(=O)c1cc(C(C)(C)C)c(O)c(C(C)(C)C)c1", "logP": 5.63}, {"smiles": "COc1ccc2c3c1O[C@H]1C(=O)CC[C@@]4(O)[C@@H](C2)N(C)CC[C@]314", "logP": 0.37}, {"smiles": "CN1CC(C(=O)NC2(C)OC3(O)C4CCCN4C(=O)C(Cc4ccccc4)N3C2=O)C=C2c3cccc4[nH]cc(c34)CC21", "note": "(stereo not given)", "logP": 4.38}, {"smiles": "CCc1nn(CCCN2CCN(c3cccc(Cl)c3)CC2)c(=O)n1CCOc1ccccc1", "logP": 4.95}, {"smiles": "CC[C@H]1OC(=O)[C@H](C)[C@@H](O[C@H]2C[C@@](C)(OC)[C@@H](O)[C@H](C)O2)[C@H](C)[C@@H](O[C@@H]2O[C@H](C)C[C@H](N(C)C)[C@H]2O)[C@](C)(O)C[C@@H](C)CN(C)[C@H](C)[C@@H](O)[C@]1(C)O", "logP": 0.9}, {"smiles": "OC(CNCC(O)C1CCc2cc(F)ccc2O1)C1CCc2cc(F)ccc2O1", "note": "(stereo not given)", "logP": 2.76}, {"smiles": "CCC(C)n1ncn(-c2ccc(N3CCN(c4ccc(OC[C@H]5CO[C@](Cn6cncn6)(c6ccc(Cl)cc6Cl)O5)cc4)CC3)cc2)c1=O", "note": "(stereo not given in full)", "logP": 5.9}, {"smiles": "COc1ccc2c3c1O[C@H]1C[C@@H](O)C=C[C@@]31CCN(C)C2", "logP": 0.21}]}]}
